In patent publication US9233957B2, “5-carbamoyl-adamantan-2-yl amide derivatives, pharmaceutically acceptable salts thereof and preparation process thereof” (SK BIOPHARMACEUTICALS CO., LTD., priority 2011, dated 2016):
Like-named read-outs stand apart in the source and are kept apart here.

Columns and labels:
[1] = biological target: T1, 11b-HSD1 (Mus musculus, UniProt P50172); assay: Ex vivo PD assay: 11b-HSD1 inhibition in abdominal fat and liver tissue after oral administration to mice; conditions: mouse C57B1/6, oral, vs vehicle group; for inhibition at 20 mg/kg: 6 hr; for inhibition at 10 mg/kg: 2 hr
T1 construct: the tissues in abdominal fat and the liver were obtained; from tissue; host or cells: abdominal fat and liver of C57Bl/6 mice
T1 sequence (P50172 whole entry): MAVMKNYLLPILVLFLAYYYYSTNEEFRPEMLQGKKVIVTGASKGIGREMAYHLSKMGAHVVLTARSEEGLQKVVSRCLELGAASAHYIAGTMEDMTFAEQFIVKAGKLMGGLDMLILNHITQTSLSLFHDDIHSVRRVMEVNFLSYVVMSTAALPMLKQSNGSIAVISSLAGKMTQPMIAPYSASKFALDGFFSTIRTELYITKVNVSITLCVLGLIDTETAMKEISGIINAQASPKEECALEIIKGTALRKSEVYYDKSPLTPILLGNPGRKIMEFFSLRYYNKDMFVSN
Protocol: The prepared compound was orally administered to a mouse (C57B1/6, orient 8 week old, about 25 g, male) and in a proper amount of time (2 hours, 6 hours, 12 hours, 16 hours, and 24 hours), the mouse was sacrificed and around 30 to 40 mg of the tissues in abdominal fat and the liver were obtained. To 500 ul of a medium (RPMI, gibco) including 1 μM of cortisone (from Sigma Co. Ltd.) and 400 μM of NADPH (from Sigma Co. Ltd) was added the tissue as obtained (30-40 mg), which then reacted in a cell cultivator at 37° C. for 3 hours. After 50 ul of the reacted solution was taken and diluted with DMEM medium at a volume ratio of 1/10, the amount of cortisol being generated was measured by using a cortisol kit (assay designs Co. Ltd., ELISA kit) in accordance with the method set forth in the appended manual. From the results being measured, the degree of the inhibition was obtained by the conversion in comparison with the vehicle group (vehicle: 5% DMSO+5% cremophor in dw, the amount being proportionate to the body weight, i.e., the administration was made at the same volume as the drug being introduced). • Reference material: Published Aug. 15, 2005//JEM vol. 202 no. 4 517-527 The Rockefeller University Press % inhibition={(the amount of cortisol of the vehicle group−the amount of the cortisol of the group with the compound being administered)/(the amount of cortisol of the vehicle group)}×100
According to the above analyzing method, the efficacy of inhibiting 11b-HSD1 of the test compound in the target organ was calculated as % inhibition values, which are shown in Table 2 and Table 3.

[2] = biological target: T2, Human 11b-HSD1 (Homo sapiens, UniProt P28845); assay: Inhibition of cortisone-to-cortisol conversion in CHO-K1 cells over-expressing human 11b-HSD1 (HTRF cortisol assay); assay type: cell-based; conditions: CHO-K1 cells over-expressing human 11b-HSD1, 160 nM cortisone, 3 hours, 37° C.
T2 construct: expressed in transfected cells
T2 sequence (P28845 whole entry): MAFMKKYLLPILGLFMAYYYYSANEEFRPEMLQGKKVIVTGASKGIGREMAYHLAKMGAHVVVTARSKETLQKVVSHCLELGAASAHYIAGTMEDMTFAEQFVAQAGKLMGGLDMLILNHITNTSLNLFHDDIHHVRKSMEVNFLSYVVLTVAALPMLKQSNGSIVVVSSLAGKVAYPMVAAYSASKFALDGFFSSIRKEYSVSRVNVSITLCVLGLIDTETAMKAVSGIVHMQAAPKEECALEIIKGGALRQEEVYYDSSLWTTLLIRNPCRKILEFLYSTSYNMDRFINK
Excerpt: (§1) cDNA (human: Accession No. U12978.2; mouse: Accession No. NM_008288.2) coding the full-length amino acid sequence of 11β-HSD1 in a human and a mouse was incorporated into pMSCVpuro (from Clontech. Co. Ltd.), a vector of expressing a mammalian cell for the production of a retrovirus, and the resulting product was introduced into a GP2-293 cell (from Clontech Co. Ltd.), a retrovirus packing cell line together with pVSV-G vector (from Clontech Co. Ltd.) by using a Lipotamine plus reagent (from Invitrogen Co. Ltd.) in accordance with the method set forth in the appendix (by using HTRF cortisol assay kit from Cisbio assays Co., Ltd., catalog No. 62CO2PEB) and stabilized for 48 hours. Thereafter, viruses being obtained from those cells were used to infect CHO-K1 cell (from Korean Cell Line Bank, KCLB No. 10061) and in 24 hours, the cells were treated with 10 μg/ml pumycin (from Sigma Co. Ltd.) for two weeks to produce a stabilized cell system wherein each 11β-HSD1 in humans or in mice was over-expressed. When the cells being maintained, 5 μg/ml of puromycin was put into the medium and used (RPMI (Gibco), 37° C.). • Reference material: The EMBO Journal (2008) 27, 642-653
(§2) The obtained cells with 11b-HSD1 in a human and a mouse being over-expressed were sub-cultured in a 96-well plate with a cell number being 3×10^4 cells per well and stabilized for 24 hours [RPMI (Gibco), at 37° C., as being used in 5 days after thawing]. After a medium as diluted with DMSO including 160 nM of cortisone (from Sigma Co. Ltd.) and a test compound at a different concentration was put into each well in an amount of 200 ul, the well was cultured in a cell cultivator at 37° C. for 3 hours. 10 ul of the cultured solution was put into a 384 well plate and the amount of cortisol as generated was measured using a cortisol kit (from Cisbio international Co. Ltd, HTRF assay) in accordance with the method set forth in the appended manual.
(§3) As a control group, 160 nM of cortisone and 1% of DMSO were put into a corresponding well. The ground value was obtained from a well including only 160 nM of cortisone and 1% of DMSO without cells just like the control group. The calculation for a % inhibition level was made following the manual as appended. • Reference material: The Journal of Steroid Biochemistry and Molecular Biology, Volume 104, Issues 3-5, May 2007, Pages 123-129 • Bioorganic & Medicinal Chemistry Letters Volume 19, Issue 10, 15 May 2009, Pages 2674-2678
(§4) Like the analyzing method as stated above, the efficacy of inhibiting 11b-HSD1 was calculated as IC50 and the results are shown in Table 1: […]

[3] = biological target: T3, Mouse 11b-HSD1 (Mus musculus, UniProt P50172); assay: Inhibition of cortisone-to-cortisol conversion in CHO-K1 cells over-expressing mouse 11b-HSD1 (HTRF cortisol assay); assay type: cell-based; conditions: CHO-K1 cells over-expressing mouse 11b-HSD1, 160 nM cortisone, 3 hours, 37° C.
T3 construct: expressed in transfected cells
T3 sequence (P50172 whole entry): as the sequence (P50172 whole entry) above
Excerpt: as §1, §2, §3, §4

[4] = abdominal fat, read-out: 11b-HSD1 % inhibition in the fat
[5] = liver, read-out: 11b-HSD1 % inhibition in the liver

| inhibition at 20 mg/kg [1, 4] [%] | inhibition at 20 mg/kg [1, 5] [%] | IC50 [2] [nM] | IC50 [3] [nM] | inhibition at 10 mg/kg [1, 4] [%] | inhibition at 10 mg/kg [1, 5] [%] | Structure (SMILES) |
| --- | --- | --- | --- | --- | --- | --- |
| 57 | 48 | > 500 | 100 to 500 | 51 | 61 | NC(=O)[C@]12CC3CC(C1)[C@@H](NC(=O)c1ccc4ccccc4[n+]1[O-])C(C3)C2 [Example 64, N-(5-carbamoyl-2-adamantyl)-1-oxidoquinolin-1-ium-2-carboxamide] |
| 63 | 38 | < 100 | < 100 |  |  | NC(=O)[C@]12CC3CC(C1)[C@@H](NC(=O)c1ccc(-c4ccccc4)s1)C(C3)C2 [Example 40, N-(5-carbamoyl-2-adamantyl)-5-phenylthiophene-2-carboxamide] |
| 65 | 61 | < 100 | < 100 | 58 | 62 | NC(=O)[C@]12CC3CC(C1)[C@@H](NC(=O)c1ccc4ccccc4n1)C(C3)C2 [Example 18, N-(5-carbamoyl-2-adamantyl)quinoline-2-carboxamide] |
| 71 | 47 | < 100 | < 100 |  |  | NC(=O)[C@]12CC3CC(C1)[C@@H](NC(=O)c1ccc(-c4cccc(Cl)c4)o1)C(C3)C2 [Example 26, N-(5-carbamoyl-2-adamantyl)-5-(3-chlorophenyl)furan-2-carboxamide] |
| 83 | 70 | < 100 | < 100 | 91 | 85 | NC(=O)[C@]12CC3CC(C1)[C@@H](NC(=O)c1ccc(-c4ccccc4)o1)C(C3)C2 [Example 1, N-(5-carbamoyl-2-adamantyl)-5-phenylfuran-2-carboxamide] |
|  |  | < 100 | < 100 | 51 | 50 | NC(=O)[C@]12CC3CC(C1)[C@@H](NC(=O)c1cccc4cccnc14)C(C3)C2 [Example 19, N-(5-carbamoyl-2-adamantyl)quinoline-8-carboxamide] |
| 72 | 69 | < 100 | < 100 |  |  | NC(=O)[C@]12CC3CC(C1)[C@@H](NC(=O)c1ccc(-c4ccccc4F)o1)C(C3)C2 [Example 30, N-(5-carbamoyl-2-adamantyl)-5-(2-fluorophenyl)furan-2-carboxamide] |

Further lines, the compound ahead of its results:

| Structure (SMILES) | inhibition at 20 mg/kg [1, 4] [%] | inhibition at 20 mg/kg [1, 5] [%] | IC50 [2] [nM] | IC50 [3] [nM] | inhibition at 10 mg/kg [1, 4] [%] | inhibition at 10 mg/kg [1, 5] [%] |
| --- | --- | --- | --- | --- | --- | --- |
| NC(=O)[C@]12CC3CC(C1)[C@@H](NC(=O)c1ccc(-c4ccccc4Cl)o1)C(C3)C2 [Example 27, N-(5-carbamoyl-2-adamantyl)-5-(2-chlorophenyl)furan-2-carboxamide] | 80 | 65 | < 100 | < 100 |  |  |
| Cn1c(C(=O)N[C@H]2C3CC4CC2C[C@](C(N)=O)(C4)C3)ccc1-c1ccccc1Cl [Example 38, N-(5-carbamoyl-2-adamantyl)-5-(2-chlorophenyl)-1-methylpyrrole-2-carboxamide] | 98 | 98 | < 100 | < 100 |  |  |
| Cn1c(C(=O)N[C@H]2C3CC4CC2C[C@](C(N)=O)(C4)C3)ccc1-c1ccccc1F [Example 39, N-(5-carbamoyl-2-adamantyl)-5-(2-fluorophenyl)-1-methylpyrrole-2-carboxamide] | 98 | 96 | < 100 | < 100 |  |  |
| NC(=O)[C@]12CC3CC(C1)[C@@H](NC(=O)c1ccc(-c4ccccc4Cl)s1)C(C3)C2 [Example 43, N-(5-carbamoyl-2-adamantyl)-5-(2-chlorophenyl)thiophene-2-carboxamide] | 70 | 59 | < 100 | < 100 |  |  |
| Cn1c(C(=O)N[C@H]2C3CC4CC2C[C@](C(N)=O)(C4)C3)ccc1-c1ccccc1 [Example 34, N-(5-carbamoyl-2-adamantyl)-1-methyl-5-phenylpyrrole-2-carboxamide] | 96 | 92 | < 100 | < 100 |  |  |
| NC(=O)[C@]12CC3CC(C1)[C@@H](NC(=O)c1ccc(-c4ccc(Cl)cc4)o1)C(C3)C2 [Example 2, N-(5-carbamoyl-2-adamantyl)-5-(4-chlorophenyl)furan-2-carboxamide] | 85 | 44 | < 100 | 100 to 500 | 84 | 68 |
